Values after ≈ are worked out from the molar mass of the structure shown. Read-outs that look alike come from different tables or passages of the source.
Key:
[1] = Conversion (cyclization) of nopaline / isonopaline to the pyro-derivatives; rate of formation; assay type: physicochemical; conditions: for cyclization: above pH 5.5; for reaction rate constant: conversion to pyro-derivative; for first order rate constant, formation of pyrrolidonecarboxylic acid derivative: pH 3.2, 60° C.; for time to completion of conversion to the pyrrolidonecarboxylic acid derivative: pH 3.2, 120° C. (autoclave)
octopine dehydrogenase [2] = assay: Oxidation catalyzed by octopine dehydrogenase; assay type: biochemical, scallops (Pecten maximus); conditions: nopaline / isonopaline as substrate
Solubility in H2O = assay type: physicochemical; conditions: water, 22° C.
[3] = Stability in bacteria-free tumor extract; assay type: physicochemical; conditions: pH 5.3, 10 days, room temperature
[4] = tested on: A. tumefaciens (strain C-58); assay: Growth of A. tumefaciens (turbidity A650, doubling time) with compound as source of carbon and nitrogen; assay type: cell-based; conditions: for Doubling Time: 0.0045 g/ml in control medium; for utilization as a source of carbon and nitrogen: preinduced and uninduced bacteria
Method: The minimal medium for bacterial growth was the mineral salt mixture described by Petit and Tempe, hereinbefore cited to which glucose was aded to make the final concentration 0.005 g/ml. The control medium was the mineral salt mixture from which the ammonium sulfate was omitted. In order to test whether they would support bacterial growth either nopaline, isonopaline, or the pyrrolidonecarboxylic acid derivative of nopaline or pyronopaline were added separately to the control medium to make the final concentration 0.0045 g/ml.
A single colony from a plate on minimal medium was adapted to liquid medium that contained nopaline. When visibly turbid, the nopaline liquid culture was innoculated (1% innoculum) into minimal liquid medium and into nopaline liquid medium. When turbid, these two cultures were used as inoculum to test the nopaline, isonopaline and pyronopaline in liquid culture media (20 ml in 125 ml flasks). After innoculation (1%), cultures were agitated on a rotary shaker at 1 cycle per second, and growth was monitored by measurement of the turbidity in a spectrophotometer. The turbidity (A650) readings were plotted on log paper and the doubling time was determined from the logarithmic portion of the growth curve (Table II).
Table II contains the results of experiments to test the ability of A. tumefaciens (strain C-58) to utilize the isomers and derivatives of nopaline as a source of carbon and nitrogen. […] The results are the same for both preinduced and uninduced bacteria. As expected the doubling time in minimal medium is greater than that in either nopaline or pyronopaline, since metabolism by the organism is more complex in the […] medium.

octopine dehydrogenase [5] = conditions: known substrate specificity; cited from earlier work
[6] = Reverse reaction (stability) of the pyrrolidonecarboxylic acid derivative of nopaline at 100° C.; assay type: physicochemical; conditions: 100° C. in NaOH, Na2CO3 (both at 0.1M), or HCl (3M)

With `N=C(N)NCCC[C@H](N[C@H](CCC(=O)O)C(=O)O)C(=O)O` [Nopaline, N-(4-((aminoiminomethyl)amino-)-1S-carboxybutyl)-2R-2-pentanedioic acid] the “relative rate of reaction of nopaline vs isonopaline” value ([1]; 22° C. and 100° C.) was “faster reaction”, the “time of conversion to the pyro-derivative” value ([1]; 60° C.) was 18 to 24 h and the “time for completed conversion to the pyro-derivative” value ([1]; 100° C., pH 0.0) was “approximately 1.0 hours”. The “time for quantitative conversion to the pyro-derivative” value ([1]; 100° C., pH 3.2) was “approximately 2 hours”, the “time of conversion to the pyro-derivative” value ([1]; 121° C.) was “approximately 30 minutes” and the cyclization [1] was “neither nopaline nor isonopaline is demonstrable”. For the same compound, the reaction rate constant [1] was 4.6e-07 s⁻¹, the “first order rate constant, formation of pyrrolidonecarboxylic acid derivative” value [1] was 4.6×10^-7 S^-1 and the “time to completion of conversion to the pyrrolidonecarboxylic acid derivative” value [1] was 30 min. The “conversion to the pyro-derivatives” value ([1]; pH above approximately 5.5, 48 hours at 100° C.) was “too slow to be readily measured”, the “oxidation catalyzed by octopine dehydrogenase” value (“oxidation catalyzed” below) (octopine dehydrogenase [2]) was “catalyzed the oxidation of nopaline” and the solubility (Solubility in H2O) was 6.3 mg/mL (≈ 20.7 mM). The “change of concentration in tumor extract” value [3] was “did not change”, the “Doubling Time” value ([4]; Preinduced Innoculum) was 2.8 h and the “Doubling Time” value ([4]; Uninduced Innoculum) was 2.8 h. The “utilization as a source of carbon and nitrogen” value (“utilization as a source” below) [4] was “metabolized”.
For `C[C@H](N[C@@H](CCCNC(=N)N)C(=O)O)C(=O)O` [L-allooctopine], the “oxidation catalyzed” value (octopine dehydrogenase [5]) is given as “not of L-allooctopine”.
With `N=C(N)NCCC[C@H](N[C@@H](CCC(=O)O)C(=O)O)C(=O)O` [Isonopaline] the “time for completed conversion to the pyro-derivative” value ([1]; 60° C., pH 3.2) was “approximately 100 hours”, the cyclization [1] was “neither nopaline nor isonopaline is demonstrable” and the reaction rate constant [1] was 3.5e-08 s⁻¹. For the same compound, the “first order rate constant, formation of pyrrolidonecarboxylic acid derivative” value [1] was 0.35×10^-7 S^-1, the “time to completion of conversion to the pyrrolidonecarboxylic acid derivative” value [1] was 30 min and the “oxidation catalyzed” value (octopine dehydrogenase [2]) was “not that of isonopaline”. The solubility (Solubility in H2O) was 21.3 mg/mL (≈ 70 mM), the “Doubling Time” value ([4]; Preinduced Innoculum) was “no growth” and the “Doubling Time” value ([4]; Uninduced Innoculum) was “no growth”. For the same compound, the “utilization as a source” value [4] was “completely ineffective”.
In the case of `C[C@@H](N[C@@H](CCCNC(=N)N)C(=O)O)C(=O)O` [D-octopine], the “oxidation catalyzed” value (octopine dehydrogenase [5]) is given as “catalyzes the oxidation of D-octopine”.
For `N=C(N)NCCC[C@@H](C(=O)O)N1C(=O)CC[C@@H]1C(=O)O` [Pyronopaline, N-(4-((aminoiminomethyl)amino)-1S-carboxybutyl)-2-pyrrolidone-5R-carboxylic acid], the solubility (Solubility in H2O) was 34.5 mg/mL (≈ 121 mM), the “change of concentration in tumor extract” value [3] was “did not change” and the reverse reaction [6] was “No significant reverse reaction”. The “Doubling Time” value ([4]; Preinduced Innoculum) was 3.1 h, the “Doubling Time” value ([4]; Uninduced Innoculum) was 3.1 h and the “utilization as a source” value [4] was “metabolized”.

From patent US5081289A, “Synthesis and isolation of nopaline and its analogues” (The University of Alabama in Birmingham, priority 1989, dated 1992)
